Experimental data taken from patent US8426592B2, “Histone deacetylases, and uses related thereto” (President and Fellows of Harvard College, priority 1996, dated 2013).
Where two headings read alike, the source gives them in different places. Non-standard residues stand in square brackets, D forms with d. Residues, ends and D or L forms follow the SMILES beside them. Aoe = N[C@@H](CCCCCC(=O)[C@@H]1CO1)C(=O)O

What was measured:
[1] = system: histone deacetylase; assay: Histone deacetylase assay, release of [3H]acetic acid from [3H]acetylated histone H4 (1-24) peptide; assay type: biochemical; conditions: 20 nM; crude or partially purified (Mono Q) bovine thymus nuclear enzyme; pretreatment 30 min at 4° C.
Experimental: Nuclear proteins from bovine thymus were precipitated with ammonium sulfate and fractionated on a Mono Q column. […] For the histone deacetylase assay, a peptide corresponding to bovine histone H4 (1-24) was synthesized. The peptide was chemically acetylated with sodium [^3H]acetate (5.3 Ci/mmol, New England Nuclear)/BOP reagent (Aldrich) and purified by reverse phase HPLC. Two microliters of [^3H]peptide (˜40,000 dpm) were used per […] assay. After incubation at 37° C. for one hour, the reaction was quenched with 1 M HCl/0.16 M acetic acid (50 μl). Released [^3H]acetic acid was extracted with 600 μl of ethyl acetate and quantified by scintillation counting. […] A280=absorbance at 280 n.
Briefly, thymocytes (˜12 g) prepared from fresh bovine thymus were homgenized in hypotonic lysis buffer [20 mM tris (pH 7.8), 20 mM NaCl, 1 mM EDTA, 10% glycerol, 1 mM PMSF, 1 mM benzamidine, 10 μg/ml each of pepstatin, aprotinin, and leupeptin] by mechanical disruption and the nuclei were isolated by centrifugation at 3000 g. Nuclei were resuspended in lysis buffer and the proteins were extracted with 0.4 M ammonium sulfate. The viscous lysate was sonicated and clarified by centrifugation at 100,000 g for one hour. Proteins were then precipitated with 90% saturated ammonium sulfate and recovered by centrifugation (100,000 g, one hour). […]

[2] = system: mammalian cells; conditions: cited from earlier work; for gene expression and differentiation: certain mammalian cell lines; for cell cycle arrest: mammalian cells
[3] = system: bovine p46-p50; assay: Binding of bovine thymus nuclear proteins to K-trap affinity matrix in presence of inhibitors, silver stained gel; conditions: incubation in presence of inhibitor
Experimental: Nuclear proteins from human Jurkat T cells were prepared identically to those from bovine thymus (FIG. 1B). Molecular size standards (in kilodaltons) are indicated to the right.
K-trap was deprotected with Pd(Ph3P)4 and coupled to an activated agarose matrix (FIG. 2A). […] Bound polypeptides were eluted by boiling the matrix in 1% SDS buffer and separated b polyacrylamide gel electrophoresis.

[4] = system: histone deacetylase; conditions: cited from earlier work; for histone deacetylation: cultured mammalian cells, fractioned cell extracts
[5] = system: trapoxin binding protein; assay: Trapoxin binding, charcoal precipitation assay with [3H]trapoxin; conditions: simultaneous addition, bovine thymus extracts
[6] = molecular target: T1, recombinant HD1-F (Homo sapiens, UniProt Q13547); assay: Interaction between recombinant HD1-F and K-trap affinity matrix, immunoblot; assay type: binding; conditions: lysates of transfected Jurkat cells
T1 construct: expressed in transfected cells; host or cells: Tag Jurkat cells, electroporated with pBJ5/HD1-F
T1 sequence (Q13547 whole entry): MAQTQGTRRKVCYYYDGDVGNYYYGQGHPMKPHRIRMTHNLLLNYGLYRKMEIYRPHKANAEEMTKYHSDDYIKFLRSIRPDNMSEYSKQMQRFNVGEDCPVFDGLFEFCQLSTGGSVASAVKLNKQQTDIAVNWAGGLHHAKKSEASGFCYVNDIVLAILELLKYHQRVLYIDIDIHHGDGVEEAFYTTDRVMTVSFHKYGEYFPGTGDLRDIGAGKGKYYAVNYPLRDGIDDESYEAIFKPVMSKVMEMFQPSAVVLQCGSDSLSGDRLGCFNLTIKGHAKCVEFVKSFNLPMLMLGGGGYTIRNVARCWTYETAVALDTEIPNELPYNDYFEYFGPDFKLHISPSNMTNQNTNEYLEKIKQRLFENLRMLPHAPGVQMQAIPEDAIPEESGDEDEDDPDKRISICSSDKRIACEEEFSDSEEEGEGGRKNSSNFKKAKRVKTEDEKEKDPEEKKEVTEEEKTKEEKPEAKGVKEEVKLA
Experimental: Lysates from Jurkat cells transfected with pBJ5/HD1-F were incubated with the K-trap affinity matrix in the presence or absence of inhibitors. Immunoblots of the eluted proteins were probed with the anti-FLAG M2 monoclonal antibody (IBI).

[7] = molecular target: T2, HD1 and RbAp48 (Homo sapiens, UniProt Q13547); assay: Immunoblot of proteins eluted from K-trap affinity matrix; assay type: binding, bovine and human; conditions: affinity purification in presence of inhibitor
T2 construct: endogenous in cells; host or cells: Jurkat nuclear extract (the same blot also carries bovine thymus nuclear proteins)
T2 sequence (Q13547 whole entry): as above
T2 sequence (Q09028 2-425 partner): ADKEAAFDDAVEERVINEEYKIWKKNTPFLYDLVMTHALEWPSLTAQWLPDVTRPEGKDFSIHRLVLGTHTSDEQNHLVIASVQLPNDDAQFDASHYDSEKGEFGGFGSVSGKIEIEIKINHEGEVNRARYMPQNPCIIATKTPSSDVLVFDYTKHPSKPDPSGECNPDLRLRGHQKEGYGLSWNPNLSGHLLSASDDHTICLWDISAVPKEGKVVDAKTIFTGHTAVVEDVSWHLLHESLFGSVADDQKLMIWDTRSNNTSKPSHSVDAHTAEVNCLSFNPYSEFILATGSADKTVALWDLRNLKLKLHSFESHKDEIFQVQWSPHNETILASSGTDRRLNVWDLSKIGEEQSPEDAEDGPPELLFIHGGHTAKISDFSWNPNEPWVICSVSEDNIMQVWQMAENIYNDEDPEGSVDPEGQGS
Text: Proteins eluted from the K-trap affinity matrix (FIG. 2) were separated by SDS-PAGE and transferred to Immobilon-P (Millipore). Blots were probed with polyclonal anti-HD1 (319-336) or monoclonal anti-RbAp48 and bound antibodies were detected with enhanced chemiluminescence (Amersham).
To determine the relationship between the proteins from bovine thymus (p46-p50) and the proteins isolated from human Jurkat T cells (p50 and p55), an antiserum was generated against a peptide specified by the HD1 open reading frame (FIG. 3A, amino acids […]).

[8] = molecular target: T3, recombinant FLAG epitope tagged HD1 (HD1-F) (Homo sapiens, UniProt Q13547); assay: Histone deacetylase activity of anti-FLAG immunoprecipitates of recombinant HD1-F; assay type: biochemical; conditions: Jurkat cells transfected with pBJ5/HD1-F
T3 construct: expressed in transfected cells; host or cells: Tag Jurkat cells, electroporated with pBJ5/HD1-F
T3 sequence (Q13547 whole entry): as the sequence (Q13547 whole entry) above
Experimental: Anti-FLAG antibodies conjugated to agarose beads (IBI) were used to immunoprecipitate recombinant HD1 in the presence or absence of FLAG peptide competitor, and histone deacetylase activity was measured as described above.

[9] = molecular target: T4, HD1 (Homo sapiens, UniProt Q13547); assay: Histone deacetylase activity of anti-HD1(467-482) immunoprecipitates from Jurkat nuclear extract; assay type: biochemical; conditions: endogenous HD1 from Jurkat crude nuclear extracts
T4 construct: endogenous in cells; host or cells: Jurkat T cells (nuclear extract)
T4 sequence (Q13547 whole entry): as above
T4 sequence (Q09028 2-425 partner limits assumed): as the sequence (Q09028 2-425 partner) above
Experimental: After resuspending the immunoprecipitates in HDx buffer [20 mM tris (pH 8), 150 mM NaCl, 10% glycerol], inhibitors were added as indicated, and histone deacetylase activity was measured as described in FIG. 1A.
We used affinity purified antibodies directed against a COOH-terminal peptide (amino acids 467 to 482) to immunoprecipitate HD1 from crude nuclear extracts.

Structure (SMILES) | histone deacetylase activity after treatment [1] | gene expression and differentiation [2] | cell cycle arrest [2] | cell cycle arrest ([2]; listed as Trapoxin) | retention of bovine p46-p50 on K-trap matrix in the presence of inhibitor [3] | mode of inhibition of histone deacetylase activity [4] | histone deacetylation [4] | histone deacetylation ([4]; listed as Trapoxin) | competition with [3H]trapoxin binding [5] | potency relative to sodium butyrate [2] | competition of HD1-F interaction with K-trap affinity matrix [6] | detection of HD1 and RbAp48 in K-trap matrix eluates [7] | histone deacetylase activity of HD1-F immunoprecipitates [8] | histone deacetylase activity of HD1 immunoprecipitates [9]
O=C1N[C@@H](Cc2ccccc2)C(=O)N2CCC[C@@H]2C(=O)N[C@@H](CCCCCC(=O)[C@@H]2CO2)C(=O)N[C@H]1Cc1ccccc1 [trapoxin] (cyclo(FF[dP][Aoe])) | abolished deacetylase activity | alter gene expression and induce certain mammalian cell lines to differentiate | G1 and G2 phase cell cycle arrest | causes mammalian cells to arrest in the cell cycle | not retained | “irreversible” inhibitor | inhibit histone deacetylation | inhibits histone deacetylation in vivo | completed | – | – | – | – | –
CC(/C=C/C(=O)NO)=C\[C@@H](C)C(=O)c1ccc(N(C)C)cc1 [trichostatin] | abolished deacetylase activity | alter gene expression and induce certain mammalian cell lines to differentiate | G1 and G2 phase cell cycle arrest | – | not retained | – | inhibit histone deacetylation | – | competed | five orders of magnitude more potent | fully competed by nanomolar concentrations | neither HD1 nor RbAp48 was detected | sensitive | inhibited
